Tested on: cynomolgus monkeys
Test: 4-week safety study: routine ECG analysis
Type: in vivo
Conditions: for QT / QTc / HR / QRS: Male
Experimental: Routine ECG analysis was performed at each scheduled time (day 1 after administration, d01 and d02 after administration, 1 and 24 h after administration on day 1, before administration, and 1 and 24 h after administration on day 26 and day 56). P-wave, R-wave, T-wave, P-R intervals, Q-T intervals, QRS duration and heart rate were recorded by an ECG system using derivation DII (ECG-6951E, Shanghai, China).

Question: Which QT (20 mg/kg, 1 h (d 1)) does the source give for `COC(=O)NCCCn1nc([C@@H](C)N(C(=O)[C@H]2CNCCO2)C2CC2)c2ccc(C)nc21` [compound of Formula I] here?
Answer: The QT was 158.0 ± 11.0 ms.

Question: What about the QTc (20 mg/kg, 1 h (d 1)) of the same compound?
Answer: Its QTc is 241.4 ± 12.3 ms.

Question: And the HR (20 mg/kg, 1 h (d 26))?
Answer: Its HR is 260.0 ± 12.4 bmp.

Question: What about the QRS (20 mg/kg, 1 h (d 26)) of the same compound?
Answer: Its QRS is 36.0 ± 5.5 ms.

Question: And the QT (20 mg/kg, 1 h (d 26))?
Answer: The QT was 146.0 ± 11.4 ms.

Question: And the QTc (20 mg/kg, 1 h (d 26))?
Answer: The QTc was 237.8 ± 16.3 ms.

Question: And the HR (20 mg/kg, 24 h (d 1))?
Answer: Its HR is 206.1 ± 20.7 bmp.

Question: And the QRS (20 mg/kg, 24 h (d 1))?
Answer: Its QRS is 28.0 ± 4.5 ms.

Question: What about the QT (20 mg/kg, 24 h (d 1)) of the same compound?
Answer: Its QT is 166.0 ± 8.9 ms.

Question: And the QTc (20 mg/kg, 24 h (d 1))?
Answer: Its QTc is 250.0 ± 10.4 ms.

Question: What about the HR (20 mg/kg, 24 h (d 26)) of the same compound?
Answer: The HR was 264.9 ± 16.1 bmp.

Question: And the QRS (20 mg/kg, 24 h (d 26))?
Answer: Its QRS is 34.0 ± 5.5 ms.

Question: What about the QT (20 mg/kg, 24 h (d 26)) of the same compound?
Answer: Its QT is 146.0 ± 11.4 ms.

Question: And the QTc (20 mg/kg, 24 h (d 26))?
Answer: Its QTc is 239.2 ± 14.8 ms.

Question: What about the HR (20 mg/kg, d0) of the same compound?
Answer: Its HR is 198.4 ± 16.5 bmp.

Question: And the QRS (20 mg/kg, d0)?
Answer: The QRS was 34.0 ± 8.9 ms.

Question: What about the QT (20 mg/kg, d0) of the same compound?
Answer: Its QT is 164.0 ± 11.4 ms.

Question: What about the QTc (20 mg/kg, d0) of the same compound?
Answer: Its QTc is 243.9 ± 11.7 ms.

Question: And the HR (20 mg/kg, d 56)?
Answer: The HR was 225.6 ± 2.4 bmp.

Question: What about the QRS (20 mg/kg, d 56) of the same compound?
Answer: Its QRS is 30.0 ± 0.0 ms.

Question: And the QT (20 mg/kg, d 56)?
Answer: Its QT is 145.0 ± 7.1 ms.

Question: And the QTc (20 mg/kg, d 56)?
Answer: Its QTc is 225.4 ± 10.2 ms.

Question: And the HR (100 mg/kg, 1 h (d 1))?
Answer: Its HR is 230.0 ± 19.9 bmp.

Question: What about the QRS (100 mg/kg, 1 h (d 1)) of the same compound?
Answer: Its QRS is 38.0 ± 4.5 ms.

Question: What about the QT (100 mg/kg, 1 h (d 1)) of the same compound?
Answer: Its QT is 156.0 ± 11.4 ms.

Question: And the QTc (100 mg/kg, 1 h (d 1))?
Answer: Its QTc is 243.8 ± 16.5 ms.

Question: And the HR (100 mg/kg, 1 h (d 26))?
Answer: The HR was 256.9 ± 16.7 bmp.

Question: And the QRS (100 mg/kg, 1 h (d 26))?
Answer: Its QRS is 36.0 ± 5.5 ms.

Question: And the QT (100 mg/kg, 1 h (d 26))?
Answer: Its QT is 144.0 ± 5.5 ms.

Question: What about the QTc (100 mg/kg, 1 h (d 26)) of the same compound?
Answer: Its QTc is 233.8 ± 12.2 ms.

Question: What about the HR (100 mg/kg, 24 h (d 1)) of the same compound?
Answer: The HR was 208.2 ± 10.4 bmp.

Question: What about the QRS (100 mg/kg, 24 h (d 1)) of the same compound?
Answer: The QRS was 36.0 ± 8.9 ms.

Question: What about the QT (100 mg/kg, 24 h (d 1)) of the same compound?
Answer: Its QT is 162.0 ± 11.0 ms.

Question: And the QTc (100 mg/kg, 24 h (d 1))?
Answer: The QTc was 245.3 ± 18.6 ms.

Question: And the HR (100 mg/kg, 24 h (d 26))?
Answer: Its HR is 260.7 ± 9.1 bmp.

Question: And the QRS (100 mg/kg, 24 h (d 26))?
Answer: Its QRS is 36.0 ± 5.5 ms.

Question: What about the QT (100 mg/kg, 24 h (d 26)) of the same compound?
Answer: Its QT is 144.0 ± 8.9 ms.

Question: What about the QTc (100 mg/kg, 24 h (d 26)) of the same compound?
Answer: Its QTc is 234.9 ± 13.9 ms.

Question: And the HR (100 mg/kg, d0)?
Answer: Its HR is 215.4 ± 11.2 bmp.

Question: And the QRS (100 mg/kg, d0)?
Answer: The QRS was 32.0 ± 8.4 ms.

Question: And the QT (100 mg/kg, d0)?
Answer: Its QT is 154.0 ± 16.7 ms.

Question: And the QTc (100 mg/kg, d0)?
Answer: The QTc was 235.6 ± 24.5 ms.

Question: What about the HR (100 mg/kg, d 56) of the same compound?
Answer: Its HR is 225.6 ± 2.4 bmp.

Question: And the QRS (100 mg/kg, d 56)?
Answer: Its QRS is 35.0 ± 7.1 ms.

Question: And the QT (100 mg/kg, d 56)?
Answer: The QT was 165.0 ± 7.1 ms.

Question: And the QTc (100 mg/kg, d 56)?
Answer: The QTc was 256.6 ± 11.9 ms.

Question: And the HR (450 mg/kg, 1 h (d 1))?
Answer: Its HR is 217.4 ± 3.2 bmp.

Question: And the QRS (450 mg/kg, 1 h (d 1))?
Answer: The QRS was 36.7 ± 5.8 ms.

Question: And the QT (450 mg/kg, 1 h (d 1))?
Answer: Its QT is 170.0 ± 10.0 ms.

Question: And the QTc (450 mg/kg, 1 h (d 1))?
Answer: Its QTc is 261.1 ± 16.0 ms.

Question: And the HR (450 mg/kg, 1 h (d 26))?
Answer: Its HR is 247.6 ± 22.6 bmp.

Question: And the QRS (450 mg/kg, 1 h (d 26))?
Answer: The QRS was 36.0 ± 13.4 ms.

Question: What about the QT (450 mg/kg, 1 h (d 26)) of the same compound?
Answer: Its QT is 150.0 ± 17.3 ms.

Question: And the QTc (450 mg/kg, 1 h (d 26))?
Answer: Its QTc is 240.0 ± 23.7 ms.

Question: And the HR (450 mg/kg, 24 h (d 1))?
Answer: The HR was 211.0 ± 15.9 bmp.

Question: And the QRS (450 mg/kg, 24 h (d 1))?
Answer: The QRS was 32.0 ± 4.5 ms.

Question: What about the QT (450 mg/kg, 24 h (d 1)) of the same compound?
Answer: The QT was 166.0 ± 8.9 ms.

Question: What about the QTc (450 mg/kg, 24 h (d 1)) of the same compound?
Answer: Its QTc is 252.1 ± 9.4 ms.

Question: And the HR (450 mg/kg, 24 h (d 26))?
Answer: The HR was 210.4 ± 49.9 bmp.

Question: And the QRS (450 mg/kg, 24 h (d 26))?
Answer: Its QRS is 38.0 ± 4.5 ms.

Question: And the QT (450 mg/kg, 24 h (d 26))?
Answer: Its QT is 158.0 ± 13.0 ms.

Question: What about the QTc (450 mg/kg, 24 h (d 26)) of the same compound?
Answer: The QTc was 237.7 ± 12.2 ms.

Question: And the HR (450 mg/kg, d0)?
Answer: The HR was 214.3 ± 17.7 bmp.

Question: What about the QRS (450 mg/kg, d0) of the same compound?
Answer: Its QRS is 34.0 ± 5.5 ms.

Question: What about the QT (450 mg/kg, d0) of the same compound?
Answer: The QT was 156.0 ± 5.5 ms.

Question: And the QTc (450 mg/kg, d0)?
Answer: Its QTc is 238.2 ± 7.2 ms.

Question: And the HR (450 mg/kg, d 56)?
Answer: The HR was 203.3 ± 15.5 bmp.

Question: What about the QRS (450 mg/kg, d 56) of the same compound?
Answer: The QRS was 35.0 ± 7.1 ms.

Question: What about the QT (450 mg/kg, d 56) of the same compound?
Answer: Its QT is 160.0 ± 0.0 ms.

Question: And the QTc (450 mg/kg, d 56)?
Answer: The QTc was 240.2 ± 6.1 ms.

Question: What about the QRS intervals (high-dose females, 1 h after administration on d1 and d26) of the same compound?
Answer: Its QRS intervals is “Prolonged”.

Question: What about the QRS intervals (one high-dose male (animal No. 411), 1 h after administration on d26, prolonged) of the same compound?
Answer: Its QRS intervals is 60 ms.

Question: And the Sinus arrhythmia (one high-dose male, 1 h after administration on d26)?
Answer: The Sinus arrhythmia was “Sinus arrhythmia was observed in one high-dose male”.

Question: What about the QTc intervals (one mid-dose female (animal No. 303), 1 h after administration on d26, prolonged) of the same compound?
Answer: The QTc intervals was 296 ms.
